Article PMC10761933, “Acquired and intrinsic resistance to vemurafenib in BRAF^V600E ‐driven melanoma brain metastases” (FEBS Open Bio, 2023)
Like-named read-outs stand apart in the source and are kept apart here.

What was measured:
[1] = tested on: melanoma brain metastases; settings: MBM patients; cited from earlier work
[2] = Body weight during efficacy studies; type: in vivo, mice
Experimental: For the subcutaneous tumor model, therapy was initiated 2 weeks after implantation, when the tumor volume exceeded 40 mm^3. FVB WT and Abcb1a/b;Abcg2 ^ −/− nude mice (n = 8) received 25 and 10 mg·kg^−1 of vemurafenib daily, respectively. Control mice (n = 8) received vehicle. Tumor development was assessed by caliper twice a week. For the intracranial tumor model, treatment was started about 2 weeks after intracranial injection of tumor cells, when full‐blown tumors were present in all animals. WT and Abcb1a/b;Abcg2 ^ −/− nude mice received vehicle, 25 mg·kg^−1 vemurafenib, 10 mg·kg^−1 vemurafenib plus 100 mg·kg^−1 elacridar, or 10 mg·kg^−1 vemurafenib once daily for 10 consecutive days or in a 5 days on/2 days off/5 days on schedule, as indicated in the relevant figure panels. Tumor growth was monitored by BLI every 4 or 5 days. Mice were weighed daily weighed examined for abnormalities. The mice were humanely sacrificed based on BLI results or when weight loss exceeded 20% of the initial body weight.

[3] = Oral vemurafenib plasma pharmacokinetics in tumor‐free WT and Abcb1a/b;Abcg2−/− FVB nude mice; type: in vivo; settings: mean ± SD; for Cmax / Tmax / half-life: FVB nude, mouse, plasma, po; for half-life: read-out: t 1/2 (elimination half‐life) (converted)
Experimental: To establish vemurafenib plasma kinetics, tumor‐free FVB WT, and Abcb1a/b;Abcg2 ^ −/− nude mice received vemurafenib orally (p.o.) by gavage at indicated doses. Elacridar (100 mg·kg^−1) was administrated p.o. by gavage 4 h before vemurafenib. Blood was sampled from the tail vein at 15 min, 1, 2, 4, 8, and 24 h after the administration. The plasma was obtained by centrifugation (5 min, 2000 g, 4 °C). Vemurafenib was extracted from plasma by diethyl ether liquid–liquid extraction. Extracts were dried using a Savant SpeedVac Concentrator (Thermo Fisher Scientific, Waltham, MA, USA), reconstituted in MeCN : water (30 : 70), and subjected to liquid chromatography/tandem mass spectrometry (LC/MS–MS) analysis. Vemurafenib‐^13C6 was used as an internal standard.
The LC–MS/MS system consisted of an API 3000 mass spectrometer (Sciex, Framingham, MA, USA) coupled to an UltiMate 3000 LC System (Dionex, Sunnyvale, CA, USA). Samples were separated using a ZORBAX Extend‐C18 column (Agilent, Santa Clara, CA, USA), preceded by a Securityguard C18 precolumn (Phenomenex, Utrecht, the Netherlands). Elution was done using a mixture of mobile phase A (0.1% formic acid in water (v/v)) and mobile phase B (methanol) in a 5 min gradient from 20% to 95% B, followed by 95% B that was maintained for 3 min and then re‐equilibrated at 20% B. Multiple reaction monitoring parameters were 490.2/383.1 (vemurafenib) and 496.2/389.1 (vemurafenib‐^13C6). System control and data analysis were done using ANALYST ® 1.6.2 software (AB Sciex, Foster City, CA, USA).
Pharmacokinetic parameters were calculated with PKSOLVER [30]. All comparisons involving more than two groups were analyzed by one‐way ANOVA followed by Bonferroni post hoc tests. Differences in fractions of ABC transporter‐expressing cells between brain and skin lesions were compared using the Binomial test in which the skin fraction was considered as expected and the brain fraction was considered as observed. Correlations were determined using simple linear regression. Kaplan–Meier curves were drawn using GRAPHPAD PRISM v7 (GraphPad Software, La Jolla, CA, USA), and statistically significant survival differences were determined using the log‐rank test. Statistical significance was accepted in all tests when P < 0.05.

[4] = design: method as in PMID 25933211; settings: clinical study; cited from earlier work
subcutaneous A375 tumors = experiment: Efficacy against subcutaneous A375 tumors (caliper); type: in vivo; settings: 25 mg·kg^−1 in WT mice and 10 mg·kg^−1 in Abcb1a/b;Abcg2−/− mice, 13 consecutive days
Experimental: For subcutaneous xenograft models, 30 μL of cell suspension containing 3 × 10^6 A375 cells was injected into both flanks of FVB WT and Abcb1a/b;Abcg2 ^ −/− nude mice. For xenograft MBM models, stereotactic intracranial injections (A375 and Mel57) or intracarotid injections (K1735) of melanoma cells were performed as described previously. For intracranial injections, FVB nude mice were injected intracranially with 2 μL of A375 or Mel57 cell suspension containing 1 × 10^5 cells 2 mm lateral, 1 mm anterior, and 3 mm ventral from the bregma. For intracarotid injections, 1 × 10^5 cells in 100 μL HBSS were injected in the left common carotid artery of C3H/HeN mice. Tumor growth was measured by bioluminescence imaging (BLI) for intracranial tumors and by caliper for subcutaneous tumors. The volume of subcutaneous tumors was calculated in mm^3 using the modified ellipsoid formula (volume = 0.5 × length × width^2). […] Animals were stratified into treatment groups to achieve a similar mean bioluminescence reading within each cohort. […] All subsequent measurements were recorded relative to this first measurement and converted to their log values. Mean ± standard error (SE) values were calculated and plotted in graphs.
For the subcutaneous tumor model, therapy was initiated 2 weeks after implantation, when the tumor volume exceeded 40 mm^3. […] Tumor development was assessed by caliper twice a week. […]

[5] = oral, WT mice; cited from earlier work
[6] = Abcb1a/b;Abcg2−/− mice, 10 mg·kg^−1 p.o.
[7] = Abcb1a/b;Abcg2−/− mice, 25 mg·kg^−1 p.o.
[8] = 10 mg/kg, Abcb1a/b;Abcg2−/− mice, 10 mg·kg^−1 p.o.
[9] = 10 mg/kg, WT mice, 10 mg·kg^−1 p.o. + elacridar 100 mg·kg^−1 p.o. 4 h before
[10] = 25 mg/kg, Abcb1a/b;Abcg2−/− mice, 25 mg·kg^−1 p.o.
[11] = 25 mg/kg, WT mice, 25 mg·kg^−1 p.o.
[12] = WT mice, 10 mg·kg^−1 p.o. + elacridar 100 mg·kg^−1 p.o. 4 h before

Structure (SMILES): CCCS(=O)(=O)Nc1ccc(F)c(C(=O)c2c[nH]c3ncc(-c4ccc(Cl)cc4)cc23)c1F [vemurafenib]
- median overall survival [1]: 4.3 months
- body weight ([2]; Abcb1a/b;Abcg2−/− mice with intracranial A375, two cycles of 5 days of 25 mg·kg^−1 daily oral): without affecting body weight
- body weight ([2]; intracranial A375, any treatment regimen (WT 25, WT 10 + elacridar, Abcb1a/b;Abcg2−/− 10 mg·kg^−1)): could not observe any weight loss
- body weight ([2]; subcutaneous A375, 25 mg·kg^−1 in WT and 10 mg·kg^−1 in Abcb1a/b;Abcg2−/− mice, 13 days): did not result in body weight loss
- AUCplasma 0–4 h [3, 6]: 56 ± 7.2 µg·mL/h
- AUCplasma 0–24 h [3, 6]: 230 ± 35 µg·mL/h
- AUCplasma 0–∞ [3, 6]: 250 ± 49 µg·mL/h
- CL/F (apparent clearance after oral administration) [3, 6]: 0.04 ± 0.006 L·kg/h
- AUCplasma 0–4 h [3, 7]: 140 ± 16 µg·mL/h
- AUCplasma 0–24 h [3, 7]: 530 ± 68 µg·mL/h
- AUCplasma 0–∞ [3, 7]: 610 ± 84 µg·mL/h
- CL/F (apparent clearance after oral administration) [3, 7]: 0.04 ± 0.006 L·kg/h
- Cmax [3, 8]: 17000 ± 1700 ng/mL
- Tmax [3, 8]: 2.8 ± 1.1 h
- half-life [3, 8]: 6.7 ± 1.4 h
- Tmax [3, 9]: 3.6 ± 0.9 h
- half-life [3, 9]: 5.8 ± 0.6 h
- Cmax [3, 9]: 12000 ± 1700 ng/mL
- Cmax [3, 10]: 41000 ± 4500 ng/mL
- Tmax [3, 10]: 1.9 ± 0.9 h
- half-life [3, 10]: 8.5 ± 1.2 h
- Cmax [3, 11]: 42000 ± 7700 ng/mL
- Tmax [3, 11]: 2.6 ± 1.3 h
- half-life [3, 11]: 2.1 ± 0.2 h
- AUCplasma 0–4 h [3, 12]: 38 ± 5.7 µg·mL/h
- AUCplasma 0–24 h [3, 12]: 180 ± 24 µg·mL/h
- AUCplasma 0–∞ [3, 12]: 190 ± 23 µg·mL/h
- CL/F (apparent clearance after oral administration) [3, 12]: 0.05 ± 0.006 L·kg/h
- AUCplasma 0–4 h ([3]; WT mice, 25 mg·kg^−1 p.o.): 147 ± 28 µg·mL/h
- AUCplasma 0–24 h ([3]; WT mice, 25 mg·kg^−1 p.o.): 390 ± 98 µg·mL/h
- AUCplasma 0–∞ ([3]; WT mice, 25 mg·kg^−1 p.o.): 390 ± 99 µg·mL/h
- CL/F (apparent clearance after oral administration) ([3]; WT mice, 25 mg·kg^−1 p.o.): 0.07 ± 0.017 L·kg/h
- concentration in cerebrospinal fluid (CSF) as share of the plasma concentration [4]: < 1%
- efficacy against subcutaneous A375 tumors, WT vs Abcb1a/b;Abcg2−/− mice (subcutaneous A375 tumors): equally effective
- brain–plasma ratio [5]: around 0.02
